Results as given in ChEMBL document CHEMBL4725297, “The discovery and evaluation of 3-amino-2(1H)-pyrazinones as a novel series of selective p38α MAP kinase inhibitors” (Bioorg Med Chem Lett, 2020).
≈ marks a conversion by molar mass, not a printed value.

Legend:
[1] = Aqueous solubility of the compound at pH 7.4; type: physicochemical; settings: buffer
[2] = Distribution coefficient, logD of the compound at pH 7.4; type: physicochemical; settings: octanol/water
[3] = Intrinsic clearance in rat hepatocytes assessed per 10^6 cells; type: ADME, cell-based, Hepatocyte; settings: read-out: CLH
[4] = Acid dissociation constant, pKa of the compound; type: physicochemical
[5] = Half life in iv dosed rat; type: ADME, organism-based; settings: in vivo
[6] = Volume of distribution at steady state in iv dosed rat; type: ADME, organism-based; settings: in vivo, read-out: Vdss
[7] = Clearance in iv dosed rat; type: ADME, organism-based; settings: in vivo
[8] = Oral bioavailability in rat; type: ADME, organism-based; settings: in vivo
[9] = Half life in iv dosed dog; type: ADME, organism-based, Canis lupus familiaris; settings: in vivo
[10] = Clearance in iv dosed dog; type: ADME, organism-based, Canis lupus familiaris; settings: in vivo
[11] = Clearance in iv dosed dog relative to hepatic blood flow; type: ADME, organism-based, Canis lupus familiaris; settings: in vivo
[12] = Volume of distribution at steady state in iv dosed dog; type: ADME, organism-based, Canis lupus familiaris; settings: in vivo, read-out: Vdss
[13] = Apparent permeability of the compound by PAMPA; type: ADME
[14] = Clearance in iv dosed rat relative to hepatic blood flow; type: ADME, organism-based; settings: in vivo

Cc1ccc(C(=O)NC2CC2)cc1-n1ccnc(NCCc2ccccc2)c1=O
solubility ([1]; read-out: solubility): 392 µM (≈ 152 µg/mL)
logD [2]: 3
hepatocyte CLint [3]: 130 µL/min/1e6 cells

Cc1ccc(C(=O)NC2CC2)cc1-n1ccnc(NCc2ccccc2OCCN2CCCC2)c1=O
solubility ([1]; read-out: solubility): 670 µM (≈ 327 µg/mL)
logD [2]: 1.6
hepatocyte CLint [3]: 55 µL/min/1e6 cells

Cc1ccc(C(=O)NC2CC2)cc1-n1ccnc(N[C@@H](c2ccccc2)[C@@H](C)CN2CCNCC2)c1=O
solubility ([1]; read-out: solubility): 636 µM (≈ 318 µg/mL)
logD [2]: 1.3
hepatocyte CLint [3]: 15 µL/min/1e6 cells

Cc1ccc(C(=O)NC2CC2)cc1-n1ccnc(N[C@@H](c2ccccc2)[C@@H](C)CN(C)C)c1=O
solubility ([1]; read-out: solubility): 843 µM (≈ 387 µg/mL)
logD [2]: 2
hepatocyte CLint [3]: 18 µL/min/1e6 cells

Cc1ccc(C(=O)NC2CC2)cc1-n1ccnc(N2CCCC2c2ccccc2)c1=O (racemic)
solubility ([1]; read-out: solubility): 344 µM (≈ 143 µg/mL)
logD [2]: 3.3
hepatocyte CLint [3]: 120 µL/min/1e6 cells

Cc1ccc(C(=O)NC2CC2)cc1-n1ccnc(N[C@H](C)c2ccccc2)c1=O
solubility ([1]; read-out: solubility): 734 µM (≈ 285 µg/mL)
logD [2]: 2.9
hepatocyte CLint [3]: 17 µL/min/1e6 cells

Cc1ccc(C(=O)NC2CC2)cc1-n1ccnc(N[C@@H](c2ccccc2)[C@@H](C)CO)c1=O
solubility ([1]; read-out: solubility): 870 µM (≈ 376 µg/mL)
logD [2]: 2.6
hepatocyte CLint [3]: 19 µL/min/1e6 cells

Cc1ccc(C(=O)NC2CC2)cc1-n1ccnc(N[C@@H](c2ccccc2)[C@@H](C)CN2CCN[C@@H](C)C2)c1=O
solubility ([1]; read-out: solubility): 783 µM (≈ 403 µg/mL)
logD [2]: 1.5
hepatocyte CLint [3]: 14 µL/min/1e6 cells

COc1ccc(CNc2nccn(-c3cc(C(=O)NC4CC4)ccc3C)c2=O)cc1
solubility ([1]; read-out: solubility): < 19 µM
logD [2]: 2.9
hepatocyte CLint [3]: 3.4 µL/min/1e6 cells

Cc1ccc(C(=O)NC2CC2)cc1-n1ccnc(N[C@@H](c2ccccc2)[C@@H](C)CN2CCCCC2)c1=O
pKa [4]: 8.4
solubility ([1]; read-out: solubility): 908 µM (≈ 454 µg/mL)
half-life [5]: 7.8 h
logD [2]: 3
Vd [6]: 5.5 L/kg
hepatocyte CLint [3]: 61 µL/min/1e6 cells
clearance [7]: 50 mL/min/kg

Cc1ccc(C(=O)NC2CC2)cc1-n1ccnc(Nc2ccccc2)c1=O
solubility ([1]; read-out: solubility): 405 µM (≈ 146 µg/mL)
logD [2]: 3
hepatocyte CLint [3]: 3.3 µL/min/1e6 cells

Cc1ccc(C(=O)NC2CC2)cc1-n1cnc2ccc(N3CCN(C)CC3)cc2c1=O [AZD-6703]
solubility [1]: 730 µM (≈ 305 µg/mL)
half-life [5]: 0.7 h
hepatocyte CLint [3]: < 3 µL/min/1e6 cells

COc1cccc(CNc2nccn(-c3cc(C(=O)NC4CC4)ccc3C)c2=O)c1
solubility ([1]; read-out: solubility): 351 µM (≈ 142 µg/mL)
logD [2]: 2.7
hepatocyte CLint [3]: 7.4 µL/min/1e6 cells

Cc1ccc(C(=O)NC2CC2)cc1-n1ccnc(N[C@@H](c2ccccc2)[C@@H](C)CN2CCOCC2)c1=O
solubility ([1]; read-out: solubility): 216 µM (≈ 108 µg/mL)
logD [2]: 3.5
hepatocyte CLint [3]: > 300 µL/min/1e6 cells

Cc1ccc(C(=O)NC2CC2)cc1-n1ccnc(N)c1=O
logD [2]: 0.4

Cc1ccc(C(=O)NC2CC2)cc1-n1ccnc(NCc2ccccc2)c1=O
solubility ([1]; read-out: solubility): 23 µM (≈ 8.61 µg/mL)
logD [2]: 2.6
hepatocyte CLint [3]: 4.5 µL/min/1e6 cells

Cc1ccc(C(=O)NC2CC2)cc1-n1ccnc(N(C)Cc2ccccc2)c1=O
solubility ([1]; read-out: solubility): 54 µM (≈ 21 µg/mL)
logD [2]: 3.2
hepatocyte CLint [3]: 59 µL/min/1e6 cells

CNc1nccn(-c2cc(C(=O)NC3CC3)ccc2C)c1=O
solubility ([1]; read-out: solubility): > 1000 µM
logD [2]: 1.1
hepatocyte CLint [3]: 1.1 µL/min/1e6 cells

Cc1ccc(C(=O)NC2CC2)cc1-n1ccnc(NC(C)(C)c2ccccc2OCCN2CCCC2)c1=O
solubility ([1]; read-out: solubility): > 1000 µM
half-life [5]: 8 h
logD [2]: 2.3
Vd [6]: 16.6 L/kg
hepatocyte CLint [3]: 157 µL/min/1e6 cells
clearance [7]: 99 mL/min/kg

Cc1ccc(C(=O)NC2CC2)cc1-n1ccnc(NC(C)(C)c2ccccc2)c1=O
logD [2]: 3.1
hepatocyte CLint [3]: 19 µL/min/1e6 cells

COc1ccccc1CNc1nccn(-c2cc(C(=O)NC3CC3)ccc2C)c1=O
solubility ([1]; read-out: solubility): 258 µM (≈ 104 µg/mL)
hepatocyte CLint [3]: 22 µL/min/1e6 cells

CC[C@@H](Nc1nccn(-c2cc(C(=O)NC3CC3)ccc2C)c1=O)c1ccccc1
solubility ([1]; read-out: solubility): 270 µM (≈ 109 µg/mL)
logD [2]: 3.3
hepatocyte CLint [3]: 26 µL/min/1e6 cells

Cc1ccc(C(=O)NC2CC2)cc1-n1ccnc(N[C@@H](C)c2ccccc2)c1=O
solubility ([1]; read-out: solubility): 50 µM (≈ 19.4 µg/mL)
logD [2]: 3.1
hepatocyte CLint [3]: < 3 µL/min/1e6 cells

CNCCOc1ccccc1C(C)(C)Nc1nccn(-c2cc(C(=O)NC3CC3)ccc2C)c1=O
bioavailability [8]: 6%
pKa [4]: 9.1
solubility ([1]; read-out: solubility): 650 µM (≈ 309 µg/mL)
half-life [9]: 6.6 h
half-life [5]: 13 h
logD [2]: 1.6
clearance [10]: 16.5 mL/min/kg
Vd [6]: 31.6 L/kg
CL [11]: 54%
Vd [12]: 6.4 L/kg
hepatocyte CLint [3]: 20 µL/min/1e6 cells
Papp [13]: 4.2 ×10⁻⁶ cm/s
clearance [7]: 59 mL/min/kg
CL [14]: 69%

Cc1ccc(C(=O)NC2CC2)cc1-n1ccnc(N[C@@H](c2ccccc2)[C@@H](C)CN2CCN(C)CC2)c1=O
solubility ([1]; read-out: solubility): 854 µM (≈ 440 µg/mL)
logD [2]: 2.3
hepatocyte CLint [3]: 30 µL/min/1e6 cells

Cc1ccc(C(=O)NC2CC2)cc1-n1ccnc(N[C@@H]2CCCc3ccccc32)c1=O
solubility ([1]; read-out: solubility): 168 µM (≈ 69.6 µg/mL)
logD [2]: 3.7
hepatocyte CLint [3]: 140 µL/min/1e6 cells

Cc1ccc(C(=O)NC2CC2)cc1-n1ccnc(NCC2CCCCC2)c1=O
solubility ([1]; read-out: solubility): 340 µM (≈ 129 µg/mL)
logD [2]: 3.7
hepatocyte CLint [3]: 7.6 µL/min/1e6 cells

Cc1ccc(C(=O)NC2CC2)cc1-n1ccnc(NC2CC2)c1=O
solubility ([1]; read-out: solubility): > 1000 µM
logD [2]: 1.5
hepatocyte CLint [3]: < 1 µL/min/1e6 cells

Cc1ccc(C(=O)NC2CC2)cc1-n1ccnc(N[C@@H](c2ccccc2)[C@@H](C)CN2CCN[C@H](C)C2)c1=O
solubility ([1]; read-out: solubility): 847 µM (≈ 436 µg/mL)
logD [2]: 1.6
hepatocyte CLint [3]: 8.5 µL/min/1e6 cells

CC[C@@H](Nc1nccn(-c2cc(C(=O)NC3CC3)ccc2C)c1=O)c1ccccc1OCCN1CCCC1
solubility ([1]; read-out: solubility): 800 µM (≈ 413 µg/mL)
logD [2]: 2.3
hepatocyte CLint [3]: 35 µL/min/1e6 cells
